One data set deals with L1210 tumor cells. In words: Antitumor efficacy in L1210 tumor-bearing CDF1 mice (increase in life span). The format is in vivo. Particulars: for Survived Animals on Day 42: 6 per group; for Weight Changes: from the first day to the seventh day. As for the experimental part:
In the following test, antitumor efficacy studies were performed using 8-9 weeks old female CDF1 mice, the average weight of the animal is 20-25 grams. L1210 tumor cells (about 10^5 cells per mouse) were inoculated intraperitoneally. The water-soluble platinum complexes were used to treat the tumor-bearing animals and the efficacy was compared compared with the clinical platinum antitumor drugs. […] Drugs were administered intraperitoneally on day 1 and day 4 after tumor cell transplantation. The number of experimental animals in each group was 6.
The experimental animals were purchased from Vital River Laboratory Animal Technology Co. Ltd., Tumor cells L1210-leukemia cells were purchased from Shanghai An Yan Commercial Trade Co. Ltd.
The increase in life span (ILS) is calculated as follows:
Wherein, St=the weighted median survival time of treated animals; Su=the weighted median survival time of untreated animals

The conditions of data set [1]: cited from earlier work.
Data set [2] has as its system A549-human non-small cell lung cancer (adenocarcinoma). In words: MTS cytotoxicity assay (IC50). It is filed as cell-based. The following applies: A549, 96 h, read-out: IC50 value in human tumor cells A549. As for the experimental part:
(§1) Containing 10% bovine fetal serum, 1 mM of sodium pyruvate, 2 mM of L-glutamine, 50 U/mL of penicillin, 50 μg/mL of streptomycin
(§2) Human tumor cells: du145-human prostate cancer; MCF-7-human breast cancer; SK0V3-human ovarian carcinoma, HT-29-human colon cancer; A549-human non-small cell lung cancer (adenocarcinoma), H460-human non-small cell lung cancer (large cell carcinoma), and animal tumor cells: L 1210-mice leukemia cells used in the following activity test experiments were all purchased from Shanghai An Yan Commercial Trade Co., Ltd.
(§3) MTS test method was used in cytotoxicity assay. The tumor cells of logarithmic phase were collected, and then the concentration of cell suspension was adjusted, 100 μL of the cell suspension was added to each well, the cells were placed at 1000-10000 cells/well (edge well filled with sterile PBS). Cells were incubated at 37° C. with 5% CO2 to make cell monolayer overspread the bottom of each well (96-well flat-bottomed microplate). 100 μL of different concentrations of the test compounds was added to each well. Each condition was measured in five replicates. The microplate was incubated at 37° C. with 5% CO2 for 96 h and checked with inverted microscope. MTS working reagent: To 2 mL of MTS (2 mg/mL, prepared by DPBS) was added 100 μL of PMS (1 mg/mL, prepared by DPBS). The cell culture medium was discarded after centrifugation, the cell culture plate was carefully washed 2-3 times with PBS. Before detecting the absorbance value (OD), to each sample containing well was added 100 μL of cell culture medium, then 20 μL of MTS working reagent was added. After incubation at 37° C. with 5% CO2 for 2 h, the OD (optical density) value was detected at 490 nm.
(§4) Control group: the conditions are the same as the above without adding the active ingredient of antitumor agents, and the OD value was detected at 490 nm on the end of the experiment.
(§5) The cell inhibiting rate of the drugs to tumor cell growth was calculated according to the following formula:
(§6) 1) Cell viability (%)=OD of treated group/OD of control group×100%
(§7) 2) The cell viabilities under the different drug concentrations were determined, and then plotted against drug concentration. The IC50 value is the corresponding concentration in the obtained curve when the cell viability was 50%.
For orientation: Tetrazolium assays rely on reduction of a dye to a coloured formazan, in cell work by metabolically active cells.

The test system of data set [3] is H460-human non-small cell lung cancer (large cell carcinoma). The data set can be described thus: MTS cytotoxicity assay (IC50). The format is cell-based. Particulars: H460, 96 h, read-out: IC50 value in human tumor cells H460. Here is the method:
as §1, §2, §3, §4, §5, §6, §7

For a further data set, the system named is HT-29-human colon cancer. The data set can be described thus: MTS cytotoxicity assay (IC50). It is filed as cell-based. The following applies: HT29, 96 h, read-out: IC50 value in human tumor cells HT29. As for the experimental part: as §1, §2, §3, §4, §5, §6, §7
The test system of data set [4] is MCF-7-human breast cancer. In words: MTS cytotoxicity assay (IC50). The format is cell-based. The following applies: MCF7, 96 h, read-out: IC50 value in human tumor cells MCF7. As for the experimental part: as §1, §2, §3, §4, §5, §6, §7
Data set [5] deals with SKOV3-human ovarian carcinoma. The data set can be described thus: MTS cytotoxicity assay (IC50). It is filed as cell-based. Particulars: SKOV3, 96 h, read-out: IC50 value in human tumor cells SKOV3. Here is the method:
as §1, §2, §3, §4, §5, §6, §7

The test system of data set [6] is du145-human prostate cancer. The data set can be described thus: MTS cytotoxicity assay (IC50). It is filed as cell-based. Particulars: DU145, 96 h, read-out: IC50 value in human tumor cells DU145. As for the experimental part: as §1, §2, §3, §4, §5, §6, §7
[7] abbreviates: 1.25 mg/Kg i.p. day 1 and day 4.

For orientation: ILS means how much longer treated animals lived than controls. Higher therefore signals a large benefit in survival. Broadly, the IC50 is the concentration that gives 50% inhibition.

For the compound `N.N.O=C([O-])C1(C(=O)[O-])CCC1.[Pt+2]` [Carboplatin], in the data set on L1210 tumor cells (24 mg/Kg i.p. day 1 and day 4), the ILS stood at 8%, the “Survived Animals on Day 42” value is given as 0/6 and the “Weight Changes” value is given as “+0.6 g”. Further, in the data set with L1210 tumor cells (40 mg/Kg i.p. day 1 and day 4), the ILS turned out to be 22%, the “Survived Animals on Day 42” value is listed as 0/6 and the “Weight Changes” value is -0.4 g. In the data set with L1210 tumor cells (80 mg/Kg i.p. day 1 and day 4), the ILS is 50%, the “Survived Animals on Day 42” value is listed as 1/6 and the “Weight Changes” value was -1.2 g. In addition, the water solubility in data set [1] is on record as 17 mg/mL.

On to `N.N.[Cl][Pt][Cl]` [Cisplatin], for which the ILS in the data set with L1210 tumor cells (setting [7]) was 20%; in the data set on L1210 tumor cells (2.5 mg/Kg i.p. day 1 and day 4), 125%; in the data set with L1210 tumor cells (5.0 mg/Kg i.p. day 1 and day 4), 265%. The “Survived Animals on Day 42” value in the data set with L1210 tumor cells (setting [7]) was 0/6; with L1210 tumor cells (2.5 mg/Kg i.p. day 1 and day 4) it was 1/6; in the data set on L1210 tumor cells (5.0 mg/Kg i.p. day 1 and day 4), 3/6.

As to “cis-[trans-(1R, 2R)-diaminocyclohexane] Pt (II) (1-O-D-glucoside-propane-3-chloro-3,3-dicarboxylate) [Complex 2]”, the IC50 was 0.821 µM in data set [2]; 22 µM in data set [3]; 1.88 µM in the data set on HT-29-human colon cancer; 2 µM in data set [4]; 10 µM in data set [5]; 5.19 µM in data set [6]. Further, the increase in life span (ILS) in the data set on L1210 tumor cells (50 mg/Kg i.p. day 1 and day 4) is reported as greater than 425%; in the data set with L1210 tumor cells (100 mg/Kg i.p. day 1 and day 4), greater than 425%; with L1210 tumor cells (200 mg/Kg i.p. day 1 and day 4) it was greater than 425%. The “Survived Animals on Day 42” value in the data set with L1210 tumor cells (50 mg/Kg i.p. day 1 and day 4) is listed as 6/6; with L1210 tumor cells (100 mg/Kg i.p. day 1 and day 4) it was 6/6; in the data set on L1210 tumor cells (200 mg/Kg i.p. day 1 and day 4), 6/6. The “Weight Changes” value in the data set with L1210 tumor cells (50 mg/Kg i.p. day 1 and day 4) is “+1.1 g”; in the data set on L1210 tumor cells (100 mg/Kg i.p. day 1 and day 4), “+0 g”; in the data set with L1210 tumor cells (200 mg/Kg i.p. day 1 and day 4), -0.4 g.

(Values after US20160256481A1, “USE OF WATER SOLUBLE PLATINUM COMPLEX IN PREPARING DRUGS FOR PREVENTION AND TREATMENT OF CANCERS” (GUDUI BIOPHARMA TECHNOLOGY INC., priority 2011, published 2016).)
